Source: patent publication US5037957A, “Cysteine proteinase inhibitor” (priority 1987, dated 1991)

How the values were obtained:
papain = target: T1, papain (Carica papaya, UniProt P00784); assay type: biochemical; details: for apparent rate constant (k'+2, second order) for inactivation of papain: 12-fold molar excess of inhibitor, papain 2×10^-8 M, pH 6.5, 22° C
T1 construct: purchased Sigma type III
T1 sequence (P00784 134-345): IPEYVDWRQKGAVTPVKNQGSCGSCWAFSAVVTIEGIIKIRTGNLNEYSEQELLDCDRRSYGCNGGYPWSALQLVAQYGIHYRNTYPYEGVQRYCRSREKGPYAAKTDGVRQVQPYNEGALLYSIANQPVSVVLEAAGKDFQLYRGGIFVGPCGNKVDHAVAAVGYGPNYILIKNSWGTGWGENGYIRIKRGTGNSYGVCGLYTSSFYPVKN
Procedure: Activity determination of papain was performed according to Barrett et al (ibid.), using Z-Phe-Arg-NHMec as substrate in 0.1M phosphate buffer, pH 6.5/1 mM DTT/1 mM EDTA at room temperature (22° C). All test dilutions were performed in 0.01% Brij 35. The reaction was started by substrate addition (20 μM final concentration) and stopped 10 minutes later by the addition of an equal volume of 0.1M NaCH2 Cl/NaAc, pH 4.3. Released fluorogen product was measured in a Perkin-Elmer MPF-43A spectrofluorimeter (excitation 360 nm, emission 460 nm) against a blank with the same contents as the test solution where chloroacetate had been added before the addition of enzyme/substrate.
The molar active concentration of the papain solution used was determined by titration with E-64 (Barrett et al., ibid.). Stock solutions (1 mM) of LVG and VG were prepared by weighing 10 μmol of the respective peptidyl diazomethyl ketone which was thereafter dissolved in 500 μl acetonitrile (LVG) or 100 μl DMSO (VG), whereupon the volumes were adjusted to 10 ml with water. The exact concentration of peptidyl diazomethyl ketone was experimentally established, such that the reaction proceeded within a reasonable time with regard to the measuring technique used. Enzyme (2×10^-8 M final concentration) and peptidyl diazomethyl ketone were mixed at zero time. 25 μl samples were withdrawn at suitable times (15 s-10 min.) and therafter immediately added to mixtures for enzyme activity determination (see above). The dilution then obtained efficiently stopped continued reaction between enzyme and peptidyl diazomethyl ketone.
Evaluation of experimental data was made in the manner described by Barret et al. (ibid.), where
When i>>e, the following equation applies to the kinetics of inactivation: [formula] where ao is enzyme activity (here measured as amount of released fluorogen product from the substrate Z-Phe-Arg-NHMec) at zero time, and at is enzyme activity at time t.
The apparent rate constant k'+2 (second order) for the inactivation in the scheme
was caculated as kobs /i.
Papain was incubated with LVG and VG in a 12-fold molar excess, and samples were withdrawn at different times for determining residual enzyme activity.

trypsin = trypsin (Bos taurus, UniProt P00760); details: 250-fold molar excess, even after incubation for one hour
Procedure: Trypsin activity at pH 7.5 was measured at room temperature (22° C.) on samples in buffer with a final concentration of 25 mN Tris/25 mM CaCl2 The reaction was started by the addition of Bz-DL-Arg-pNA to 2.5 mN final concentration and stopped after 10 minutes by the addition of an equal volume of 50% (v/v) HAc. Released paranitroaniline was meausred spectrophotometrically (Perkin-Elmer 550S) at 405 nm. Absorbancy values for blank (HAc addition before enzyme/substrate addition) were subtracted before evaluation.

human calpain = human calpain (Homo sapiens, UniProt P07384); details: calpain 2.5 μg/ml, 30 min at 37° C, pH 7.5
Procedure: Isolated human calpain (0.15 mg/ml) in 20 mM Tris buffer, pH 7.5/5 mM CaCl2 /6 mM dithiothreitol was supplied with a substrate (0.4% casein in 0.1 M imidazole buffer, pH 7.5/5 mM CaCl2 /6 mM dithiothreitol) and different amounts of LVG. After incubation for 30 min. at 37° C., the reaction was stopped by the addition of trichloroacetic acid to a final concentration of 2.5%, and the samples were centrifuged, whereupon the absorption of the supernatant at 280 nm was measured.

group-A streptococci [1] = details: 0.2 mg LVG intraperitoneally 45 min after lethal dose of group-A streptococci; five mice per group; none of the five controls alive
Procedure: Ten mice were injected intraperitoneally with lethal doses of group-A streptococci. Five of them received after a period of 45 min. 0.2 mg LVG in 0.5 ml 1% dimethyl sulfoxide in physiological sterile saline by a second intraperitoneal injection.

group-A streptococci [2] = test system: group-A streptococci
Procedure: Group-A streptococci were cultured on blood agar discs as in routine diagnosis for determining sensitivity to antibiotics. The discs applied on the culture gel and used for supplying different types of known antibiotics were this time soaked instead with 20 μl of a solution having an LVG concentration of 1 mM. […] (MIC=minimal inhibiting concentration).

streptococcal proteinase = streptococcal proteinase (Streptococcus pyogenes serotype M1, UniProt P0C0J1); details: proteinase 0.0625 mg/ml, 5 min preincubation at 37° C, azocasein 15 min
Procedure: The isolated streptococcal proteinase (15 mg/ml) was diluted to 0.0625 mg/ml with 0.4M phosphate buffer, pH 6.5/4 mM EDTA/4 mM DTT and then activated by incubation at 37° C. for two hours. To a constant volume of the active streptococcal proteinase was thereafter added a constant volume of LVG solutions with increasing LVG concentration. After incubation for 5 min. at 37° C., the substrate azocasein was added and after additional incubation for exactly 15 min. at 37° C., the reaction was stopped by the addition of 20% TCA (trichloroacetic acid). The samples were centrifuged and the absorbancy of the supernatant was read at 366 nm.

Row | Substance | apparent rate constant (k'+2, second order) for inactivation of papain (papain) [M⁻¹ s⁻¹] | inhibition of trypsin enzyme activity (trypsin) | inhibition of papain (papain) | behaviour as substrate for papain (papain; cleaved at the glycine-glycine peptide bond) | effectiveness as papain inhibitor relative to VG (papain; LVG versus VG) | final concentration of LVG giving complete inhibition of calpain (human calpain) [µM] | mice still alive after one day (group-A streptococci [1]) | effect on bacterial growth when a molar excess of isolated streptococcal proteinase was added to the LVG solution (group-A streptococci [2]; LVG solution premixed with molar excess of streptococcal proteinase before application to cultures) | inhibition of growth of group-A streptococci on blood agar (group-A streptococci [2]; discs soaked with 20 μl of 1 mM LVG, all tested isolates and reference strains) | MIC (minimal inhibiting concentration) for group-A streptococci (group-A streptococci [2]; growth in free solution) | LVG concentration sufficient to give total inhibition of streptococcal proteinase activity (streptococcal proteinase) [µM]
1 | N-t-butyloxycarbonyl-valyl-glycine diazomethyl ketone [VG] | 5000 | no inhibition | – | – | – | – | – | – | – | – | –
2 | synthetic peptide corresponding to position 4-21 in cystatin C: synthetic peptide corresponding to position 4-21 in cystatin C (synthesized on request by Ferring AB, Malmo, Sweden) (GKPPRLVGGPMDASVEEE; UniProt P01034 30-47, looked up, fragment) [reference compound] | – | – | does not at all inhibit | excellent substrate | – | – | – | – | – | – | –
3 | N-benzyloxycarbonyl-leucyl-valyl-glycine diazomethyl ketone [LVG] | 300000 | no inhibition | – | – | about 100 times | 1 | five | no effect on the bacterial growth | effectively inhibited in growth | about 1 μg/l | 10
